# Assay results from the METLIN SMRT retention time set (Domingo-Almenara et al. 2019).
# Assay: gradient 5% acetonitrile 3 min, to 50% in 2 min, to 85% in 15 min, held 3 min, 100 µL/min
# Conditions: column: Zorbax Extend-C18 2.1 x 50 mm; eluents: water / acetonitrile, 0.1% formic acid
# How it was run: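 Pure standards were run in mixtures of ~100 molecules by HPLC coupled to a quadrupole time-of-flight mass spectrometer. The column was a Zorbax Extend-C18 (2.1 × 50 mm, 1.8 μm) at 100 μL/min, with water and acetonitrile each containing 0.1% formic acid, in positive and negative ionization mode. Dead and dwell volumes were 40 μL and 900 μL. Retention time was taken from computationally picked adduct peaks, each manually inspected, with data collected over 3 months.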
row,Compound,RP-LC retention time [s]
1,CC(C)(C)c1ccc(C(=O)NC2(c3nc(-c4cccnc4)no3)CCCCC2)cc1,1160
2,Cc1cc(NC(=O)Cn2ccn3nc(-c4ccc(F)cc4)c(CO)c3c2=O)n[nH]1,666
3,Cc1cc(C)cc(NC(=O)N2CCC(N3CCN(Cc4ccc(F)cc4)C(=O)C3=O)CC2)c1,788
4,CC(=O)Nc1ccc(Br)cc1C(=O)c1ccccc1,840
5,COc1cc(Cl)c(NC(=O)CN2C(=O)CN(C)C(=O)c3ccccc32)c(OC)c1,717
6,O=C(Nc1ccc2c(c1)OCO2)C1CCN(C(=O)C2Sc3ccccc3NC2=O)CC1 (centres undefined),736
7,CCN(CC)c1cc2c(cc1NC(=O)COc1ccc(Cl)cc1)n(C)c(=O)c(=O)n2C,965
8,COc1ccccc1-c1nc(-c2ccc(S(=O)(=O)N3CCC(C)CC3)cc2)no1,1290
9,CCOc1ccccc1-n1ccn(Cc2nc(-c3ccc(C)c(C)c3)no2)c(=O)c1=O,958
10,O=C(COc1ccccc1)Nc1nc(-c2ccccc2)cs1,1050
11,O=C(NCc1ccc(Br)cc1)C1CCN(C(=O)c2cc(-c3ccncc3)n[nH]2)CC1,618
12,c1ccc(N2CCN(Cc3cccn3-c3nnc(N4CCOCC4)s3)CC2)nc1,756
13,COc1ccc(C(=O)N2CCC3(C2)C(=O)N(C)c2ccccc23)c(OC)c1 (centres undefined),759
14,CC(C)=C(c1ccc(Cl)cc1)c1c(N)ncnc1N,705
15,O=C(Cn1cnc2nc(N3CCC(C(=O)NC4CC4)CC3)sc2c1=O)Nc1ccc(Cl)cc1,686
16,O=S(=O)(c1cccnc1)N1CCN(c2ccc(-c3cccs3)nn2)CC1,692
17,CCc1ccc(-n2ncc3c(=O)n(Cc4nc(-c5ccc(OC)cc5)no4)cnc32)cc1,1120
18,Cc1cc(N)n(-c2nc(C)nc3sc4c(c23)CCC(C)C4)n1 (centres undefined),857
19,CCOCC(=O)N1CCCN(C2=NS(=O)(=O)C(c3ccc(CC)cc3)=C2C)CC1,790
20,CCc1cc(=O)n(CC(=O)Nc2cccc(C)c2)c(N)n1,600
21,COc1ccc(OC)c(NC(=O)C2CCCN(c3cnc4nccnc4c3)C2)c1 (centres undefined),730
22,Cc1ccc(-c2nnc(Cc3nc(-c4ccccc4)no3)o2)cc1C,1090
23,Cc1sc(-c2cc(C(F)(F)F)on2)cc1S(=O)(=O)N1CCN(C2CCCCC2)CC1,857
24,CC(C)CC(NC(=O)Cc1ccc(Cl)cc1)C(=O)Nc1nc2ccccc2[nH]1 (centres undefined),767
25,CC(=O)Nc1nnc(SCc2nnc(-c3ccc4c(c3)OCO4)o2)s1,678
26,Cc1ccc(NS(=O)(=O)c2cc(-c3[nH]ncc3C(=O)N(C)C)oc2C)c(C)c1,739
27,O=C1CCCc2cc(S(=O)(=O)N3CCC(C(=O)N4CCC5(CC4)OCCO5)CC3)ccc2N1,662

row,Compound,RP-LC retention time [s]
1,CCOC(=O)c1[nH]c(C)c(CCC(=O)N2CCC(C(=O)NC(C)C)CC2)c1C,683
2,CCCC1=Nc2cc(C(=O)N3CCN(c4ccccn4)CC3)ccc2Sc2ccc(C)cc21,802
3,O=C(NCCC1=CCCCC1)C1CCN(c2cnc(N3CCCCC3)nc2)CC1,872
4,Cc1ccc(-c2csc(Nc3ccc(Br)cn3)n2)c(C)c1,1330
5,O=C(Cn1cccc1-c1nc(-c2ccc(Cl)cc2)cs1)NCc1ccco1,1080
6,C=C[C@@]1(C)CC(=O)[C@]2(O)[C@@]3(C)[C@H](O)CCC(C)(C)[C@@H]3[C@H](O)[C@H](OC(C)=O)[C@@]2(C)O1,1040
7,Cc1sc(NC(=O)C(C)C)nc1-c1ccc2c(c1)N(C)C(=O)CO2,831
8,CCOc1cccc(C(=O)Nc2nc(-c3ccc(OC)c(Br)c3)cs2)c1,1280
9,Cc1ccc(C)c(CN2CCC(F)(c3nc(-c4cnccn4)no3)CC2)c1,650
10,Cc1cnc(C2CC2)n1CCNS(=O)(=O)c1cc(F)cc(F)c1,615
11,O=C(Cc1cccc(F)c1)Nc1nnc(C2CC(=O)N(c3ccc(Cl)cc3)C2)o1 (centres undefined),800
12,CCN(Cc1cccnc1)C(=O)CN(c1ccc(OC)nc1)S(=O)(=O)c1ccccc1C,734
13,CCCCN1C(=O)C(C)(C(=O)Nc2ccccc2)Oc2cccnc21 (centres undefined),999
14,O=C(NCc1ccc(Br)cc1)c1cn2nc(Cl)ccc2n1,882
15,Cc1ccccc1-c1nc2cnccn2c1NCCC(=O)NCC(C)C,636
16,COc1ccc(-c2cn3c(CC(=O)Nc4ccc(Cl)c(C(F)(F)F)c4)csc3n2)cc1OC,882
17,Cc1cc(NC(=O)c2ccc(=O)n(C)n2)no1,598
18,CCc1nccn1Cc1nc(-c2ccccc2F)no1,603
19,Cc1cc(Nc2ccc(Cl)cc2C)n2ncnc2n1,806
20,CCN1C(=O)C2(CCN(S(=O)(=O)c3ccc(C(F)(F)F)cc3)CC2)c2ccccc21,1130
21,CCc1ccc2[nH]c3c(c(=O)c2c1)CN(CC(=O)NCc1ccc(Cl)cc1)CC3,656
22,Cc1ccc2nc(C(=O)NCc3cccc(Cl)c3)cn2c1,718
23,COc1cc(-c2noc(Cn3ncn4nc(-c5ccccc5Cl)cc4c3=O)n2)cc(OC)c1OC,1060
24,O=C(CCCNC(=O)c1cc(-c2ccco2)on1)Nc1cccc2cccnc12,805
25,CC(C)(C)c1onc(OCP(=O)(O)O)c1CC(N)C(=O)O (centres undefined),594
26,CC(C)c1ccc(N2C(=O)CN(S(C)(=O)=O)CC2(C)C(=O)NCc2ccc(F)cc2)cc1 (centres undefined),836
27,CCN1C(=O)COc2ccc(-c3nc(NC(=O)c4ccccc4)sc3C)cc21,1030

# Now from value to compound:
row,RP-LC retention time [s],Compound
1,979,O=C(Cc1ccccc1F)N1CCCn2nc(-c3ccc(Cl)cc3)cc2C1
2,1200,O=C(Cc1cccc(F)c1)N1CCCC1c1nc(-c2ccccc2Cl)no1 (centres undefined)
3,851,CSc1ccccc1NS(=O)(=O)c1cc2c(s1)CCN(C(=O)C1CC1)C2
4,700,N#Cc1cccc(NC(=O)Cn2cnc3nc4c(cc3c2=O)CCCC4)c1
5,735,O=C(NCc1ccc2c(c1)OCO2)C1CCCN(c2nnc3ccc(Cl)cn23)C1 (centres undefined)
6,751,CCc1ccccc1NC(=O)N1CCC(c2cc(N)on2)CC1
7,766,Cc1ccc(-c2cc3n(n2)CCCN(C(=O)c2ccccn2)C3)cc1
8,681,Cc1ccc(CNC(=O)c2nsc(C(=O)N3CCN(c4ccccn4)CC3)c2N)cc1
9,679,O=C(CCc1nnc2c3cc(-c4ccccc4)nn3ccn12)N1CCN(C(=O)c2ccco2)CC1
10,763,COCCN1C(=O)CCc2cc(NS(=O)(=O)c3ccccc3Br)ccc21
11,962,CCc1ccc(NC(=O)N(C)CCc2noc(COc3ccccc3)n2)cc1
12,632,CCCc1nnc(NC(=O)CSc2ncc(-c3ccccc3)[nH]2)s1
13,930,Cc1cccc(NC(=O)CN2C(=O)CCc3cc(S(=O)(=O)N4CCCCC4C)ccc32)c1C (centres undefined)
14,697,CCc1nncn1C1CCN(S(=O)(=O)c2cccc(C)c2)CC1
15,662,Cc1nncn1C1CN(C(=O)Nc2ccc(Cl)cc2C(F)(F)F)C1
16,762,Cc1nnc(N2CCCC(C(=O)NCCCc3ccccc3)C2)c2nn(-c3ccccc3)c(C)c12 (centres undefined)
17,976,CCc1cccc(C)c1NC(=O)C1CCN(S(=O)(=O)c2c(C)nn(-c3ccccc3)c2C)CC1
18,645,CCCNC(=O)C1CCN(c2ccc(SCC(=O)Nc3ccc(C)cc3)nn2)CC1

row,RP-LC retention time [s],Compound
1,722,O=C(NCC1CCN(C(=O)COc2ccccc2)CC1)c1ccc(Br)o1
2,569,Cn1c(=O)n(C)c2cc(CNCC(O)c3ccccc3)ccc21 (centres undefined)
3,609,CCOc1ccc(-n2c(CN3CCN(C(=O)NCCCOC)CC3)nc3cccnc32)cc1
4,658,O=C(NC1CCN(Cc2ccccc2)CC1)c1cc2n(n1)CCCN(Cc1ccc(F)cc1)C2=O
5,703,COCCNC(=O)c1cc2c(s1)N(C)CCC2
6,596,COC(=O)CC(NC(=O)N1CCCn2nc(-c3cccnc3)cc2C1)c1ccccc1 (centres undefined)
7,740,O=C(NCCc1ccccc1)C1CCN(C(=O)C2Sc3ccccc3NC2=O)CC1 (centres undefined)
8,890,Cc1nnc(SCCC(=O)Nc2nc(-c3ccccc3)ns2)s1
9,849,O=C(NC1CCCC1)c1ccc(-c2cccs2)nc1
10,539,COCCNC(=O)N1CCCCC1c1nncn1Cc1ccccc1 (centres undefined)
11,784,COCc1nc2cccnc2n1C1CCN(C(=O)Nc2ccccc2C(=O)OC)CC1
12,578,Cc1cn(C)c(CC(=O)NCCN2CCCCC2)c1C(=O)O
13,971,COC(=O)c1ccc(C(=O)NCC2(c3cccs3)CCCC2)cc1
14,1060,CCOc1ccc(NC(=O)c2cn(C)nc2S(=O)(=O)N2CCC(C)CC2)cc1
15,1180,COc1ccc(S(=O)(=O)N2CCCC(C(=O)Nc3ccc(Cl)c(Cl)c3)C2)cc1C (centres undefined)
16,564,Cc1ccc(C(=O)NCCc2ncc(C)n2C2CCC2)s1
17,982,O=C(NCc1ccc(Br)cc1)C1CCN(c2ncnc3c2oc2ccccc23)CC1
